Literature values in patent publication US20230046963A1, “METHOD FOR DYEING KERATINOUS MATERIAL, COMPRISING THE USE OF AN ORGANOSILICON COMPOUND, A DYEING COMPOUND AND A PRE-TREATMENT AGENT” (Henkel AG & Co. KGaA, priority 2019, published 2023).

Settings: 25° C.

Row | Compound | solubility in water | solubility in water (in words)
1 | O=C([O-])c1c(Cl)c(Cl)c(Cl)c(Cl)c1-c1c2c(Br)cc(=O)c(Br)c-2oc2c(Br)c(O)cc(Br)c12.O=C([O-])c1c(Cl)c(Cl)c(Cl)c(Cl)c1-c1c2c(Br)cc(=O)c(Br)c-2oc2c(Br)c(O)cc(Br)c12.[Na+].[Na+] [Acid Red 92, disodium salt of 3,4,5,6-tetrachloro-2-(1,4,5,8-tetrabromo-6-hydroxy-3-oxoxanthen-9-yl)benzoic acid] | greater than 10 g/L | 
2 | O=S(=O)([O-])c1ccc(N=Nc2c(O)ccc3ccccc23)cc1.[Na+] [Acid Orange 7, sodium salt of 4-[(2-hydroxy-1-naphthyl)azo]benzenesulfonate] | more than 7 g/L | 
3 | O=C([O-])C1=NN(c2ccc(S(=O)(=O)[O-])cc2)C(=O)C1N=Nc1ccc(S(=O)(=O)[O-])cc1.[Na+].[Na+].[Na+] (centres unmarked) [Acid Yellow 23, trisodium salt of 4,5-dihydro-5-oxo-1-(4-sulfophenyl)-4-((4-sulfophenyl)azo)-1H-pyrazole-3-carboxylic acid] |  | readily soluble in water
4 | Nc1cc(S(=O)(=O)[O-])cc2cc(S(=O)(=O)[O-])c(N=Nc3ccccc3)c(O)c12.[Na+].[Na+] [Acid Red 33, disodium salt of 5-amino-4-hydroxy-3-(phenylazo)-naphthalene-2,7-disulphonate] | 2.5 mg/mL | 
5 | mixture of the sodium salts of mono- and disulfonic acids of 2-(2-quinolyl)-1H-indene-1,3(2H)-dione [Acid Yellow 3] | 20 mg/mL | 
